{"source": "patent EP3575287A1", "about": "“INHIBITORS OF N-ACYLPHOSPHATIDYLETHANOLAMINE PHOSPHOLIPASE D (NAPE-PLD)” (Universiteit Leiden, priority 2018, dated 2019)", "data": [{"biological_target": "T1, human NAPE-PLD (Homo sapiens, UniProt Q6IQ20)", "T1 construct": "Full length human cDNA NAPE-PLD was obtained from Natsuo Ueda; made in house; host or cells: HEK293T cells, transient transfection (pcDNA3.1); membrane fraction used", "T1 sequence (Q6IQ20 whole entry)": "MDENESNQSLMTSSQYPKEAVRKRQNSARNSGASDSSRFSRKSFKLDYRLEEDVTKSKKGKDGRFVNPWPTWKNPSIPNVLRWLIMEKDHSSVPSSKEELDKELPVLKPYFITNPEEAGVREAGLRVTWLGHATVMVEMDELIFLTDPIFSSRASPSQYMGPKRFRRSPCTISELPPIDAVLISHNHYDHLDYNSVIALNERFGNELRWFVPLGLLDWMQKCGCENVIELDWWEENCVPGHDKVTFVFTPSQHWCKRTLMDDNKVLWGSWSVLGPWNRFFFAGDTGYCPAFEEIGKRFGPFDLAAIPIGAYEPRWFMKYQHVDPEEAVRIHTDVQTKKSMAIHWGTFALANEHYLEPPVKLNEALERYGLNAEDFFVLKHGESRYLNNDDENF", "assay": "In vitro NAPE-PLD activity assay", "type": "biochemical", "conditions": "membrane protein fraction of HEK293T cells overexpressing human NAPE-PLD; substrate PED6 1 µM; 30 minutes preincubation at 37 °C", "description": "Full length human cDNA NAPE-PLD was obtained from Natsuo Ueda^1 and cloned into mammalian expression vector pcDNA3.1, containing a C-terminal Flag-tag and genes for ampicillin and neomycin resistance. All plasmids were grown in XL-10 Z-competent cells and prepped (Maxi Prep, Qiagen). Sequence analysis for the confirmation of the sequences was performed at the Leiden Genome Technology Centre.\nHEK293T were cultured at 37 °C and 7% CO2 in DMEM (Sigma Aldrich, D6546) with glutamax, penicillin (100 µg/ml), streptomycin (100 µg/ml) and 10% New Born Calf Serum iron supplemented (Hyclone SH30072.03). Cells were passaged twice a week to appropriate confluence.\n24 hours before transfection 10^7 cells are seeded on a 15 cm dish. Two hours before transfection medium is refreshed, low volume. Transfection is performed with PEI in a ratio of 3:1 with human NAPE-PLD or Mock pcDNA3.1 Neo, 20 µg per dish. Medium is refreshed after 24 hours and cells are harvested after 72 hours.\nCell pellets are re-suspended in lysis buffer: 20 mM Hepes, 2 mM DTT, 0.25 M sucrose, 1 mM MgCl2, 2.5 U/ml benzonase and incubated 30 minutes on ice. The cytosolic fraction (supernatant) is separated from the membranes by ultra-centrifugation (32000 rpm for 30 minutes 100,000g). The pellet is resuspended in storage buffer: 20 mM Hepes, 2 mM DTT (membrane fraction). All samples are stored at -80°C. Enzyme concentrations are determined using a Bradford assay.\nThe NAPE-PLD activity assay is based on a previously reported method with small alterations.^2 The membrane protein fraction from transient overexpression of human NAPE-PLD in HEK293T cells was diluted to 0.4 mg/ml in assay buffer: 50 mM Tris-HCl (pH 7.5), 0.02% Triton X-100, 150 mM NaCl. The substrate PED6 (Invitrogen) 1 mM stock was consecutively diluted in DMSO (10x) and in assay buffer (10x) to make a 10 µM working solution. […] The assay is performed in a dark Greiner 96 wells plate, end volume 100 µl. The compound or DMSO is incubated with membrane protein lysate (final concentration 0.04 mg/ml) for 30 minutes at 37 °C. […] Mock lysate with DMSO is used for background substraction. IC50 curves are generated used Graphpad Prism v6.", "units": {"IC50": "nM"}, "values": [{"compound": "CN(CCc1ccccc1)c1nc(C(=O)NCC2CC2)cc(-n2cccn2)n1", "note": "[Example 24, N-(cyclopropylmethyl)-2-(methyl(phenethyl)amino)-6-(1H-pyrazol-1-yl)pyrimidine-4-carboxamide]", "IC50": 1200}, {"compound": "CN(CCc1ccccc1)c1nc(C(=O)NCC2CC2)cc(N2CC3(COC3)C2)n1", "note": "[Example 26, N-(cyclopropylmethyl)-2-(methyl(phenethyl)amino)-6-(2-oxa-6-azaspiro[3.3]heptan-6-yl)pyrimidine-4-carboxamide]", "IC50": 1660}, {"compound": "O=C(NCC1CC1)c1cc(N2CCOCC2)nc(N2CCNC(c3ccccc3)C2)n1", "note": "(stereo not shown) [Example 82, N-(cyclopropylmethyl)-6-morpholino-2-(3-phenylpiperazin-1-yl)pyrimidine-4-carboxamide]", "IC50": 7760}, {"compound": "CN(CCc1ccccc1)c1nc(C(=O)NCC2CC2)cc(N2CCCC2)n1", "note": "[Example 17, N-(cyclopropylmethyl)-2-(methyl(phenethyl)amino)-6-(pyrrolidin-1-yl)pyrimidine-4-carboxamide]", "IC50": 224}, {"compound": "CN(CCc1ccccc1)c1nc(C(=O)NCC2CC2)cc(N2CCC(N(C)C)C2)n1", "note": "(stereo not shown) [Example 33, N-(cyclopropylmethyl)-6-(3-(dimethylamino)pyrrolidin-1-yl)-2-(methyl(phenethyl)amino)pyrimidine-4-carboxamide]", "IC50": 9550}, {"compound": "CN(CCc1ccncc1)c1nc(C(=O)NCC2CC2)cc(N2CCOCC2)n1", "note": "[Example 81, N-(cyclopropylmethyl)-2-(methyl(2-(pyridin-4-yl)ethyl)amino)-6-morpholinopyrimidine-4-carboxamide]", "IC50": 11500}, {"compound": "CN(CCc1ccccc1Oc1ccccc1)c1nc(C(=O)NCC2CC2)cc(N2CCOCC2)n1", "note": "[Example 67, N-(cyclopropylmethyl)-2-(methyl(2-phenoxyphenethyl)amino)-6-morpholinopyrimidine-4-carboxamide]", "IC50": 603}, {"compound": "CN(CCc1ccccc1)c1nc(C(=O)NCC2CC2)cc(N2CCC(c3ccccc3)C2)n1", "note": "(stereo not shown) [Example 29, N-(cyclopropylmethyl)-2-(methyl(phenethyl)amino)-6-(3-phenylpyrrolidin-1-yl)pyrimidine-4-carboxamide]", "IC50": 1410}, {"compound": "CN(CCc1ccccc1)c1nc(C(=O)NCC2CC2)cc(N2CCNCC2)n1", "note": "[Example 11, N-(cyclopropylmethyl)-2-(methyl(phenethyl)amino)-6-(piperazin-1-yl)pyrimidine-4-carboxamide]", "IC50": 5370}, {"compound": "CN(CCO)c1cc(C(=O)NCC2CC2)nc(N(C)CCc2ccccc2)n1", "note": "[Example 30, N-(cyclopropylmethyl)-6-((2-hydroxyethyl)(methyl)amino)-2-(methyl(phenethyl)amino)pyrimidine-4-carboxamide]", "IC50": 1000}, {"compound": "CN(CCc1ccccc1Cl)c1nc(C(=O)NCC2CC2)cc(N2CCOCC2)n1", "note": "[Example 68, 2-((2-chlorophenethyl)(methyl)amino)-N-(cyclopropylmethyl)-6-morpholinopyrimidine-4-carboxamide]", "IC50": 977}, {"compound": "COc1ccc(CC2CCCCN2c2nc(C(=O)NCC3CC3)cc(N3CCOCC3)n2)cc1", "note": "(stereo not shown) [Example 73, N-(cyclopropylmethyl)-2-(2-(4-methoxybenzyl)piperidin-1-yl)-6-morpholinopyrimidine-4-carboxamide]", "IC50": 2570}, {"compound": "CCN(CCc1ccccc1)c1nc(C(=O)NCC2CC2)cc(N2CCOCC2)n1", "note": "[Example 72, N-(cyclopropylmethyl)-2-(ethyl(phenethyl)amino)-6-morpholinopyrimidine-4-carboxamide]", "IC50": 646}, {"compound": "CN(CCc1ccccc1)c1nc(C(=O)NCC2CC2)cc(N2CCN(C(=O)c3ccccc3)CC2)n1", "note": "[Example 16, 6-(4-benzoylpiperazin-1-yl)-N-(cyclopropylmethyl)-2-(methyl(phenethyl)amino)pyrimidine-4-carboxamide]", "IC50": 7760}, {"compound": "CN(CCc1ccccc1)c1nc(C(=O)NCC2CC2)cc(N2CCC(F)(F)CC2)n1", "note": "[Example 2, N-(cyclopropylmethyl)-6-(4,4-difluoropiperidin-1-yl)-2-(methyl(phenethyl)amino)pyrimidine-4-carboxamide]", "IC50": 8910}, {"compound": "CN(Cc1ccccc1)c1cc(C(=O)NCC2CC2)nc(N(C)CCc2ccccc2)n1", "note": "[Example 28, N-(cyclopropylmethyl)-2-(methyl(phenethyl)amino)-6-(benzyl(methyl)amino)pyrimidine-4-carboxamide]", "IC50": 1100}, {"compound": "O=C(NCC1CC1)c1cc(N2CCOCC2)nc(N2CCC(c3ccccc3)C2)n1", "note": "(stereo not shown) [Example 51, N-(cyclopropylmethyl)-6-morphol ino-2-(3-phenylpyrrolidin-1-yl)pyrimidine-4-carboxamide]", "IC50": 2190}, {"compound": "CN(CCc1ccccc1)c1nc(Oc2cccnc2)cc(C(=O)NCC2CC2)n1", "note": "[Example 1, N-(cyclopropylmethyl)-2-(methyl(phenethyl)amino)-6-(pyridin-3-yloxy)pyrimidine-4-carboxamide]", "IC50": 5250}, {"compound": "CN(CCc1ccc(Oc2ccccc2)cc1)c1nc(C(=O)NCC2CC2)cc(N2CCOCC2)n1", "note": "[Example 53, N-(cyclopropylmethyl)-2-(methyl(4-phenoxyphenethyl)amino)-6-morpholinopyrimidine-4-carboxamide]", "IC50": 3020}, {"compound": "O=C(NCC1CC1)c1cc(N2CC[C@H](O)C2)nc(N2CCC[C@H](c3ccccc3)C2)n1", "note": "[Example 41, N-(cyclopropylmethyl)-6-((S)-3-hydroxypyrrolidin-1-yl)-2-((R)-3-phenylpiperidin-1-yl)pyrimidine-4-carboxamide]", "IC50": 251}, {"compound": "CN(CCc1ccccc1)c1nc(C(=O)NCC2CC2)cc(N2CCC(F)(F)C2)n1", "note": "[Example 31, N-(cyclopropylmethyl)-6-(3,3-difluoropyrrolidin-1-yl)-2-(methyl(phenethyl)amino)pyrimidine-4-carboxamide]", "IC50": 1170}, {"compound": "CCCNC(=O)c1cc(N2CCOCC2)nc(N(C)CCc2ccccc2)n1", "note": "[Example 14, N-propyl-2-(methyl (phenethyl)amino)-6-morpholino-pyrimidine-4-carboxamide]", "IC50": 1820}, {"compound": "CN(CCc1ccc(Cl)cc1)c1nc(C(=O)NCC2CC2)cc(N2CCOCC2)n1", "note": "[Example 57, 2-((4-chlorophenethyl)(methyl)amino)-N-(cyclopropylmethyl)-6-morphol inopyrimidine-4-carboxamide]", "IC50": 6310}, {"compound": "CN(CCc1ccc(C(F)(F)F)cc1)c1nc(C(=O)NCC2CC2)cc(N2CCOCC2)n1", "note": "[Example 56, N-(cyclopropylmethyl)-2-(methyl(4-(trifluoromethyl)phenethyl)amino)-6-morpholino-pyrimidine-4-carboxamide]", "IC50": 6170}, {"compound": "CC(=O)N1CCN(c2cc(C(=O)NCC3CC3)nc(N(C)CCc3ccccc3)n2)CC1", "note": "[Example 12, 6-(4-acetylpiperazin-1-yl)-N-(cyclopropylmethyl)-2-(methyl(phenethyl)amino)pyrimidine-4-carboxamide]", "IC50": 1200}, {"compound": "CN(CCc1ccccc1)c1nc(Oc2ccccc2)cc(C(=O)NCC2CC2)n1", "note": "[Example 87, N-(cyclopropylmethyl)-2-(methyl(phenethyl)amino)-6-phenoxypyrimidine-4-carboxamide]", "IC50": 11200}, {"compound": "COC1CCN(c2cc(C(=O)NCC3CC3)nc(N(C)CCc3ccccc3)n2)C1", "note": "(stereo not shown) [Example 34, N-(cyclopropylmethyl)-6-(3-methoxypyrrolidin-1-yl)-2-(methyl(phenethyl)amino)pyrimidine-4-carboxamide]", "IC50": 708}, {"compound": "C#CCNC(=O)c1cc(N2CC[C@H](O)C2)nc(N2CCN(Cc3ccc(C4(C(F)(F)F)N=N4)cc3)CC2)n1", "note": "[Example 44, (S)-6-(3-hydroxypyrrolidin-1-yl)-N-(prop-2-yn-1-yl)-2-(4-(4-(3-(trifluoromethyl)-3H-diazirin-3-yl)benzyl)piperazin-1-yl)pyrimidine-4-carboxamide]", "IC50": 479}, {"compound": "CN1CCN(c2cc(C(=O)NCC3CC3)nc(N(C)CCc3ccccc3)n2)CC1", "note": "[Example 7, N-(cyclopropylmethyl)-2-(methyl(phenethyl)amino)-6-(4-methylpiperazin-1-yl)pyrimidine-4-carboxamide]", "IC50": 1580}, {"compound": "CCN(CC)c1cc(C(=O)NCC2CC2)nc(N(C)CCc2ccccc2)n1", "note": "[Example 20, N-(cyclopropylmethyl)-6-(diethylamino)-2-(methyl(phenethyl)amino)pyrimidine-4-carboxamide]", "IC50": 501}, {"compound": "O=C(NCC1CC1)c1cc(N2CCOCC2)nc(N(CCc2ccccc2)CCc2ccccc2)n1", "note": "[Example 62, N-(cyclopropylmethyl)-2-(diphenethylamino)-6-morpholinopyrimidine-4-carboxamide]", "IC50": 525}]}]}
